Experimental data from patent US6511963B1 (priority 1992, dated 2003).
Where “and” joins values, the source holds several entries; their conditions need not be identical. Identical values can stand only once. Like-named read-outs stand apart in the source and are kept apart here. Ends that are not written are not given here. Peptide text beside a SMILES is read from it.

Tests used:
[1] = target: NMDA receptor; design: species or system rat; details: read-out: EC50 of Gly, [3H]MK-801 binding
[2] = target: T1, NMDA receptor (Rattus norvegicus, UniProt P35439+Q00960); experiment: biochemical; assay type: binding
T1 construct: other: test compound in the absence of spermine; concentration at 50% of maximum stimulation; % Sti; spermine = 100; other: with and without spermine; absence of spermine; % STI; absence
T1 sequence (Q00960 27-1482, other chains not shown): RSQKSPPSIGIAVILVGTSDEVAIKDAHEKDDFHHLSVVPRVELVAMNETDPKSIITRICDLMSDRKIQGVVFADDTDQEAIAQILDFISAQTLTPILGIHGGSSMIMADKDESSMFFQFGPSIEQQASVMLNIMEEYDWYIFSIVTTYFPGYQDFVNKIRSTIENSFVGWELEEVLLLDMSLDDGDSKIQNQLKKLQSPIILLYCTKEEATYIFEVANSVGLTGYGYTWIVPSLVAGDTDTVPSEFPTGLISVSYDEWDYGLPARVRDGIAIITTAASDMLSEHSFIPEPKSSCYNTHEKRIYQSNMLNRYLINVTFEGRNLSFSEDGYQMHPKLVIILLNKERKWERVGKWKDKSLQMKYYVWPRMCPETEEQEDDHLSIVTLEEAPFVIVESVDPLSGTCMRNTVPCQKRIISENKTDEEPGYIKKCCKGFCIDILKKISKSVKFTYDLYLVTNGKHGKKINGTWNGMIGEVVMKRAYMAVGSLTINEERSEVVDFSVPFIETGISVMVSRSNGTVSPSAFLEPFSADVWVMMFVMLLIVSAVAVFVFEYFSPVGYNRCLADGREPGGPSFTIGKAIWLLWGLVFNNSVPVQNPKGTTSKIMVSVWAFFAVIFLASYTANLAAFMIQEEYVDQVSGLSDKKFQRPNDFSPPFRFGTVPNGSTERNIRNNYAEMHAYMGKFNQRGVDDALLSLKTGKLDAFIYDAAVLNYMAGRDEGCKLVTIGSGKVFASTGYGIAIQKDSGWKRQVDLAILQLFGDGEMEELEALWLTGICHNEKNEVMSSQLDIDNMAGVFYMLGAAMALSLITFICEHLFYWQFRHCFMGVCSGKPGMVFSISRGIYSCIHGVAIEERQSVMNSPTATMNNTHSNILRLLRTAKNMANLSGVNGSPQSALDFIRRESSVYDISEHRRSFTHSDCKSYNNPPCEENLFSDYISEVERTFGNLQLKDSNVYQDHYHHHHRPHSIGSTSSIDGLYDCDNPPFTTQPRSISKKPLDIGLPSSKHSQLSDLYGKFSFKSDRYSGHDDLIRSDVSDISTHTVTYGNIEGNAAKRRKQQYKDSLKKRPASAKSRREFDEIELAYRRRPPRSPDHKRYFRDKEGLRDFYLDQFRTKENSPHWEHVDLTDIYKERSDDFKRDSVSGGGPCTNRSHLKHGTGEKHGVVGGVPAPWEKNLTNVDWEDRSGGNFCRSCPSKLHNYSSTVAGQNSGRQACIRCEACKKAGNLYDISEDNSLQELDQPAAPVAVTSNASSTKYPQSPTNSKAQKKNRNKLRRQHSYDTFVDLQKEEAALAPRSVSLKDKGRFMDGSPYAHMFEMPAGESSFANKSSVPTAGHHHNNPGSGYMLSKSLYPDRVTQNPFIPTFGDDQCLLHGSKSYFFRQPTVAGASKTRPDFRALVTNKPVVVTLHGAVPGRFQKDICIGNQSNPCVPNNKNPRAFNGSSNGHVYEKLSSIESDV

[3] = tested on: NMDA receptor; assay type: binding, rat

Compound	% Inh [3] [%]	% Sti [2] [%]	other results
NCC(=O)O [Gly, glycine]			EC50 [1]: 56 nM and 58 nM
CC[C@H](C)[C@H](NC(=O)[C@H](CC(C)C)NC(=O)[C@H](CCC(=O)O)NC(=O)[C@H](CCC(N)=O)NC(=O)[C@H](CC(N)=O)NC(=O)[C@H](CCC(=O)O)NC(=O)[C@H](CCC(N)=O)NC(=O)[C@H](CC(C)C)NC(=O)[C@H](CCC(=O)O)NC(=O)[C@H](CCC(=O)O)NC(=O)[C@H](CCC(=O)O)NC(=O)CNC(=O)[C@@H](N)Cc1ccc(O)cc1)C(=O)N[C@@H](CCCNC(=N)N)C(=O)N[C@@H](CCC(=O)O)C(=O)N[C@@H](CCCCN)C(=O)N[C@@H](CO)C(=O)N[C@@H](CC(N)=O)C(N)=O [Tyr^o-Glu3,4,7,10,14-Con-G]	0		stimulation of [3H]MK-801 binding in the absence of spermine [2]: stimulated; Emax ([2]; read-out: % Sti): 31%; inhibition of spermine-induced [3H]MK-801 binding [3]: no inhibition
CC[C@H](C)[C@H](NC(=O)[C@H](CC(C)C)NC(=O)[C@H](C)NC(=O)[C@H](CC(C)C)NC(=O)[C@H](C)NC(=O)[C@H](C)NC(=O)[C@H](CCC(N)=O)NC(=O)[C@H](CC(C)C)NC(=O)[C@H](CC(C(=O)O)C(=O)O)NC(=O)[C@H](CC(C(=O)O)C(=O)O)NC(=O)[C@H](CCC(=O)O)NC(=O)CN)C(=O)N[C@@H](CCCNC(=N)N)C(=O)N[C@@H](C)C(=O)N[C@@H](CCCCN)C(=O)N[C@@H](CO)C(=O)N[C@@H](CC(N)=O)C(N)=O [alpha helix ConG, GEggLQAALALJRAKSN] (HELM PEPTIDE1{G.E.[O=C(O)C(C[C@H](N[*:1])C(=O)[*:2])C(=O)O].[O=C(O)C(C[C@H](N[*:1])C(=O)[*:2])C(=O)O].L.Q.A.A.L.A.L.I.R.A.K.S.N.[am]}$$$$V2.0)	100		Emax ([2]; read-out: % Sti): 0%; IC50 ([3]; read-out: Spermine IC): 1500 nM
CC[C@H](C)[C@H](NC(=O)[C@H](CC(C)C)NC(=O)[C@H](CC(C(=O)O)C(=O)O)NC(=O)[C@H](CCC(N)=O)NC(=O)[C@H](CC(N)=O)NC(=O)[C@H](Cc1cc(I)c(O)c(I)c1)NC(=O)[C@H](CCC(N)=O)NC(=O)[C@H](CC(C)C)NC(=O)[C@H](CC(C(=O)O)C(=O)O)NC(=O)[C@H](CC(C(=O)O)C(=O)O)NC(=O)[C@H](CCC(=O)O)NC(=O)CN)C(=O)N[C@@H](CCCNC(=N)N)C(=O)N[C@@H](CC(C(=O)O)C(=O)O)C(=O)N[C@@H](CCCCN)C(=O)N[C@@H](CO)C(=O)N[C@@H](CC(N)=O)C(N)=O [di-iodo-Tyr7-Con-G, GEggLQY(JI)NQgLIRgKSN]	100		Emax ([2]; read-out: % Sti): 0%; IC50 ([3]; read-out: Spermine IC): 500 nM
Ac-GEggLQgNQgLIRgKSN [Ac-Con-G]	0	0	activity, inhibitory or stimulatory [2]: no apparent activity
EEELQENQELIREKSN-NH2 [Glu3,4,7,10-Con-G(2-17)]	70		Emax ([2]; read-out: % STI): 33%; Emax ([2]; read-out: % Sti): 33%; % INH [3]: 70%; IC50 ([3]; read-out: IC50): 5400 nM; IC50 ([3]; read-out: Spermine IC): 5400 nM
F(pC1)-GEggLQgNQgLIRgKSN (FGEXXLQXNQXLIRXKSN; N-terminal p-chloro-Phe; gamma-carboxyglutamate residues) [Phe(pCl)^o-Con-G]	0	0	
GEYgLQgNQgLIRgKSN [Tyr3-Con-G]	0	0	
GEgALQgNQgLJRgKSN (GEXALQXNQXLIRXKSN; gamma-carboxyglutamate residues) [Ala4-Con-G]	0	0	
GEgELQgNQgLJRgKSN (GEXELQXNQXLIRXKSN; gamma-carboxyglutamate residues) [Glu4-Con-G]	0	0	
GEgS(p)LQgNQgLIRgKSN (GEXSLQXNQXLIRXKSN; phosphoserine) [Ser(p)4-Con-G]	0	0	
GEgSLQgNQgLJRgKSN [Ser4-Con-G]	0	0	
GEggLQgNQgLIRgKSN-OH [Con-G-OH]	0	0	activity, inhibitory or stimulatory [2]: no activity
QELIREKSN [Glul0,14-Con-G(9-17)]	0	0	
QENQELIREKSN [Glu 7,10,14-Con-G (6-17)]	0	0	
Y(oMe)-GEggLQgNQgLIRgKSN (YGEXXLQXNQXLIRXKSN; O-methyl tyrosine) [Tyr(oMe)^o-Con-G]	0	0	
Y(p)-GEggLQgNQgLIRgKSN (YGEXXLQXNQXLIRXKSN; phosphotyrosine) [Tyr(p)^o-Con-G]	0	0	
Y-GEggLQgNQgLIRgKSN [Tyr^o-Con-G]	0	0	
